Consider 28 molecules from ChEMBL document CHEMBL4483862, “Open-source discovery of chemical leads for next-generation chemoprotective antimalarials” (2018).

This test deals with Plasmodium berghei. Kind of test: Luciferase/luciferin-expressing antifolate-resistant parasites were used to infect a culture of HepG2 cells that were pre-incubated with compounds. Infected hepatocytes emit light due to the luciferase reaction. Assay results are presented as the percent inhibition of light emission compared to control. […]. Format: functional. As to conditions: sporozoite; for IC90: read-out: LUCIFERASE INFECTION ASSAY - IC90.

Turning to `Cn1ncc2c(ON=C(N)c3ccc(C(C)(C)C)cc3)ncnc21`, the IC90 amounted to 9.41 µM. Moreover, the IC50 (HEPG2TOX_HILL_SLOPE 12.1, HEPG2TOX_R_SQUARED 0.899, PBLUC_HILL_SLOPE 18.6, PBLUC_R_SQUARED 0.286, read-out: LUCIFERASE INFECTION ASSAY - IC50) stood at 8.36 µM.
For the molecule `CCOc1cc(/C=C2\CN(C)C/C(=C\c3ccc(O)c(OCC)c3)C2=O)ccc1O`, the IC90 worked out at 6.75 µM. In addition, the IC50 (HEPG2TOX_HILL_SLOPE 12.2, HEPG2TOX_R_SQUARED 0.94, PBLUC_HILL_SLOPE 1.92, PBLUC_R_SQUARED 0.794, read-out: LUCIFERASE INFECTION ASSAY - IC50) was found to be 2.16 µM.
Turning to `CCN(c1ccccc1)S(=O)(=O)c1ccc(C(=O)NCC(c2ccccc2OC)N2CCCC2)cc1` (stereo unspecified), the IC90 amounted to 3.69 µM. Besides, the IC50 (HEPG2TOX_HILL_SLOPE 12.4, HEPG2TOX_R_SQUARED 0.631, PBLUC_HILL_SLOPE 22.9, PBLUC_R_SQUARED 0.104, read-out: LUCIFERASE INFECTION ASSAY - IC50) amounted to 3.36 µM.
On to `O=C(Nc1ccccc1)Nc1ccc(Cl)cc1[N+](=O)[O-]`, for which the IC90 turned out to be 5.21 µM. The IC50 (HEPG2TOX_HILL_SLOPE 12.3, HEPG2TOX_R_SQUARED 0.323, PBLUC_HILL_SLOPE 4.88, PBLUC_R_SQUARED 0.281, read-out: LUCIFERASE INFECTION ASSAY - IC50) was found to be 3.32 µM.
As for `COc1cc(C(=O)N/N=C(\Cc2ncc[nH]2)c2ccccc2)cc(OC)c1OC`, the 90% effect concentration (IC90) was above 10 µM. In addition, the IC50 (HEPG2TOX_HILL_SLOPE 12.3, 3.85, HEPG2TOX_R_SQUARED 0.0839, 0.975, PBLUC_HILL_SLOPE 2.96, PBLUC_R_SQUARED 0.327, read-out: LUCIFERASE INFECTION ASSAY - IC50) worked out at 5.09 µM.
Take `FC(F)(F)c1cccc(-c2ccc3ncc(-c4cccnc4)n3n2)c1`: the IC90 is 2.23 µM. In addition, the IC50 (HEPG2TOX_HILL_SLOPE 12.4, HEPG2TOX_R_SQUARED 0.643, PBLUC_HILL_SLOPE 4.46, PBLUC_R_SQUARED 0.619, read-out: LUCIFERASE INFECTION ASSAY - IC50) is 1.36 µM.
Regarding `Nc1ccc(-c2cn3c(-c4ccc5ncccc5c4)cnc3cn2)cn1`, the IC90 stood at 8.67 µM. Under “HEPG2TOX_HILL_SLOPE 12.3, HEPG2TOX_R_SQUARED 0.596, PBLUC_HILL_SLOPE 12.7, PBLUC_R_SQUARED 0.251, read-out: LUCIFERASE INFECTION ASSAY - IC50”, the IC50 amounted to 7.29 µM.
Take `CS(=O)(=O)c1cccc(S(=O)(=O)Oc2ccc(C34CC5CC(CC(C5)C3)C4)cc2)c1`: the IC90 was above 10 µM. Where the note is “HEPG2TOX_HILL_SLOPE 12.1, HEPG2TOX_R_SQUARED 0.709, PBLUC_HILL_SLOPE 2.69, PBLUC_R_SQUARED 0.465, read-out: LUCIFERASE INFECTION ASSAY - IC50”, the IC50 came out at 4.49 µM.
With `FC(F)(F)c1cccc(Nc2cc3[nH]c(-c4ccccn4)cc3cn2)c1`, the IC90 was above 10 µM. For the same molecule, where the note is “HEPG2TOX_HILL_SLOPE 12.3, HEPG2TOX_R_SQUARED 0.757, PBLUC_HILL_SLOPE 15.4, PBLUC_R_SQUARED 0.209, read-out: LUCIFERASE INFECTION ASSAY - IC50”, the IC50 turned out to be 9.04 µM.
As for `O=C(Cn1ncc(Cl)c(Cl)c1=O)Nc1cc(S(=O)(=O)N2CCOCC2)ccc1Cl`, the IC90 was 3.74 µM. Also, where the note is “HEPG2TOX_HILL_SLOPE 12.1, HEPG2TOX_R_SQUARED 0.84, PBLUC_HILL_SLOPE 14, PBLUC_R_SQUARED 0.266, read-out: LUCIFERASE INFECTION ASSAY - IC50”, the IC50 amounted to 3.2 µM.
As to `C=CCN(C(=O)/C(=C/c1ccccc1)n1nnnc1C)c1nc(-c2ccccc2)cs1`, the IC90 turned out to be 5.71 µM. For the same molecule, where the note is “HEPG2TOX_HILL_SLOPE 12.1, HEPG2TOX_R_SQUARED 0.931, PBLUC_HILL_SLOPE 6.74, 7.08, PBLUC_R_SQUARED 0.881, 0.796, read-out: LUCIFERASE INFECTION ASSAY - IC50”, the IC50 was 4.16 µM.
`O=C(c1[nH]nc2ccccc12)N1CCN(CCOc2ccc(Cl)cc2)CC1`: the IC90 is above 10 µM. The IC50 (HEPG2TOX_HILL_SLOPE 12.2, HEPG2TOX_R_SQUARED 0.374, PBLUC_HILL_SLOPE 13.5, 22.4, PBLUC_R_SQUARED 0.492, 0.389, read-out: LUCIFERASE INFECTION ASSAY - IC50) was 9.12 µM.
With `N#C/C(=N\Nc1ccc(C(F)(F)F)cc1)S(=O)(=O)c1cccs1`, the IC90 amounted to 8.89 µM. Also, the IC50 (HEPG2TOX_HILL_SLOPE 12.1, HEPG2TOX_R_SQUARED 0.95, PBLUC_HILL_SLOPE 4.11, PBLUC_R_SQUARED 0.238, read-out: LUCIFERASE INFECTION ASSAY - IC50) was found to be 5.21 µM.
As for `CN(C)S(=O)(=O)c1cccc(NC(=O)c2nc(Cl)c(Cl)c(Cl)c2Cl)c1`, the IC90 was above 10 µM. Under “HEPG2TOX_HILL_SLOPE 12.2, HEPG2TOX_R_SQUARED 0.865, PBLUC_HILL_SLOPE 2.73, PBLUC_R_SQUARED 0.48, read-out: LUCIFERASE INFECTION ASSAY - IC50”, the IC50 was above 10 µM.
`Cc1ccc(NC(=O)/C(=C/c2cccc(F)c2)n2nnnc2C)cc1S(=O)(=O)N1CCCCCC1`: the IC90 was determined as 4.24 µM. Further, the IC50 (HEPG2TOX_HILL_SLOPE 12.2, HEPG2TOX_R_SQUARED 0.863, PBLUC_HILL_SLOPE 25.1, PBLUC_R_SQUARED 0.833, read-out: LUCIFERASE INFECTION ASSAY - IC50) came to 3.89 µM.
With `CN(C)C(=O)c1ccc(-c2ccnc3n[nH]c(-c4ccc(Cl)cc4)c23)cc1`, the IC90 stood at 7.75 µM. In addition, the IC50 (HEPG2TOX_HILL_SLOPE 12.3, HEPG2TOX_R_SQUARED 0.411, PBLUC_HILL_SLOPE 3.78, PBLUC_R_SQUARED 0.252, read-out: LUCIFERASE INFECTION ASSAY - IC50) turned out to be 4.33 µM.
As for `CCC(C)CNc1cc(C(=O)Nc2cccc(OC)c2)cc(S(=O)(=O)N2CCCC2)c1` (stereo unspecified), the IC90 was above 7.41 µM. The IC50 (HEPG2TOX_HILL_SLOPE 12.2, HEPG2TOX_R_SQUARED 0.774, PBLUC_HILL_SLOPE 2.54, PBLUC_R_SQUARED 0.165, read-out: LUCIFERASE INFECTION ASSAY - IC50) worked out at 5.57 µM.
As to `CN1/C(=C\C=N\c2cc(Cl)c([N+](=O)[O-])cc2O)C(C)(C)c2ccccc21`, the IC90 is above 10 µM. Moreover, the IC50 (HEPG2TOX_HILL_SLOPE 12.2, 11.0, HEPG2TOX_R_SQUARED 0.457, 0.953, PBLUC_HILL_SLOPE 3.42, PBLUC_R_SQUARED 0.319, read-out: LUCIFERASE INFECTION ASSAY - IC50) was determined as 5.58 µM.
With `CN1C/C(=C\c2ccccc2Cl)C(=O)/C(=C/c2ccccc2Cl)C1`, the IC90 amounted to 3.58 µM. For the same molecule, the IC50 (HEPG2TOX_HILL_SLOPE 12.3, HEPG2TOX_R_SQUARED 0.936, PBLUC_HILL_SLOPE 378, PBLUC_R_SQUARED 0.452, read-out: LUCIFERASE INFECTION ASSAY - IC50) came to 3.56 µM.
Regarding `Cc1onc(-c2ccccc2)c1-c1csc(-c2ccc(Oc3ccc(C(F)(F)F)cn3)cc2)n1`, the IC90 came out at 2.83 µM. Besides, the IC50 (HEPG2TOX_HILL_SLOPE 12.3, HEPG2TOX_R_SQUARED 0.647, PBLUC_HILL_SLOPE 12.5, PBLUC_R_SQUARED 0.454, read-out: LUCIFERASE INFECTION ASSAY - IC50) turned out to be 2.37 µM.
On to `N#Cc1ccc(Nc2nc(C(F)(F)F)nc3ccccc23)cc1`, for which the IC90 turned out to be 5.09 µM. In addition, under “HEPG2TOX_HILL_SLOPE 12.3, HEPG2TOX_R_SQUARED 0.755, PBLUC_HILL_SLOPE 4.38, PBLUC_R_SQUARED 0.727, read-out: LUCIFERASE INFECTION ASSAY - IC50”, the IC50 amounted to 3.08 µM.
For the molecule `Clc1cccc(-c2cc3c(Nc4ccc5c(c4)OCCO5)nccc3[nH]2)c1`, the IC90 is above 10 µM. For the same molecule, the IC50 (HEPG2TOX_HILL_SLOPE 12.1, HEPG2TOX_R_SQUARED 0.71, PBLUC_HILL_SLOPE 1.15, PBLUC_R_SQUARED 0.766, read-out: LUCIFERASE INFECTION ASSAY - IC50) was found to be 1.75 µM.
`CCOc1ccccc1NC1=C(Cl)C(=O)c2ccccc2C1=O`: the IC90 stood at 9.94 µM. Moreover, the IC50 (HEPG2TOX_HILL_SLOPE 12.2, HEPG2TOX_R_SQUARED 0.715, PBLUC_HILL_SLOPE 2.84, PBLUC_R_SQUARED 0.486, read-out: LUCIFERASE INFECTION ASSAY - IC50) was 4.58 µM.
As for `Cc1cc(Br)c(O)c(/C=N/NC(=S)NC(C)(C)C)c1`, the IC90 was found to be 4.85 µM. Besides, the IC50 (HEPG2TOX_HILL_SLOPE 12.3, HEPG2TOX_R_SQUARED 0.401, PBLUC_HILL_SLOPE 113, PBLUC_R_SQUARED 0.332, read-out: LUCIFERASE INFECTION ASSAY - IC50) was 4.76 µM.
On to `Fc1ccc(CNc2ncnc3ccsc23)cc1`, for which the IC90 is above 10 µM. In addition, under “HEPG2TOX_HILL_SLOPE 12.4, 1.24, HEPG2TOX_R_SQUARED 0.688, 0.830, PBLUC_HILL_SLOPE 1.50, 7.58, PBLUC_R_SQUARED 0.332, 0.354, read-out: LUCIFERASE INFECTION ASSAY - IC50”, the IC50 is 6.82 µM.
For `O=C(CSc1ncc(C(F)(F)F)cc1C(F)(F)F)Nc1cc(Cl)cc(Cl)c1`, the IC90 was above 7.35 µM. Further, for the setting “HEPG2TOX_HILL_SLOPE 12.1, HEPG2TOX_R_SQUARED 0.84, PBLUC_HILL_SLOPE 0.731, PBLUC_R_SQUARED 0.558, read-out: LUCIFERASE INFECTION ASSAY - IC50”, the IC50 turned out to be 1.53 µM.
With `CCOC(=O)c1c(C)[nH]c(C(=O)Nc2nc(-c3ccc(C4CCCCC4)cc3)cs2)c1C`, the IC90 turned out to be 9.4 µM. For the same molecule, the IC50 (HEPG2TOX_HILL_SLOPE 12.2, HEPG2TOX_R_SQUARED 0.959, PBLUC_HILL_SLOPE 12.5, PBLUC_R_SQUARED 0.559, read-out: LUCIFERASE INFECTION ASSAY - IC50) was 7.88 µM.
Take `C/C=C/C=C/C(=O)Nc1ccc(Nc2ccccc2)cc1`: the IC90 was determined as 5.63 µM. The IC50 (HEPG2TOX_HILL_SLOPE 12.3, HEPG2TOX_R_SQUARED 0.699, PBLUC_HILL_SLOPE 454, 10.1, PBLUC_R_SQUARED 0.588, 0.566, read-out: LUCIFERASE INFECTION ASSAY - IC50) turned out to be 5.17 µM.
